Test results taken from US20040067932A1 (priority 2002, published 2004).
Converted amounts (≈) assume the structure as drawn. Read-outs that look alike come from different tables or passages of the source. Values belong to the compound of their own block, whether it stands above or below them.

What was measured:
[1] = system: A375 cells; assay: Flow cytometry (PI) G2/M accumulation and sub-G1 apoptosis, A375; format: cell-based, human; settings: Homo sapiens, A-375, read-out: SEC50 (dose inducing 50% of the enhancing activity to vindesine)
Procedure: A375 and NCTC2544 adherent cells were trypsinized, mixed with floating cells, washed with PBS and permeabilised in 70% (vol/vol) ethanol/PBS solution at 4° C. for at least 24 hours. Jurkat, HeL023 and PBMC cells were centrifuged for 10 minutes at 1000×g. The cell pellet was then resuspended and permeabilised in 70% (vol/vol) ethanol/PBS solution at 4° C. for at least 24 hours. The cells were washed with PBS and the DNA was stained with a PBS solution, containing 20 μg/ml of propidium iodide and 100 μg/ml of RNAse, at room temperature for 30 minutes. Cells were analysed by FACScan (Becton-Dickinson) and the content of DNA was evaluated by the Cell-LISYS program (Becton-Dickinson). Cell distribution among cell cycle phases and apoptotic cells was evaluated as previously described (Secchiero et al., 2001). Briefly, the cell cycle distribution is shown as the percentage of cells containing 2n (G1 phase), 4n (G2 and M phases), 4n>x>2n. DNA amount (S phase) judged by propidium iodide staining. The apoptotic population is the percentage of cells with DNA content lower than 2n.
Cell proliferation and apoptosis are quantified by flow cytometer analysis after propidium-iodide (PI) DNA staining.

[2] = target: T1, P-gp drug efflux activity in HeL023 cells (Homo sapiens, UniProt P08183); assay: Rhodamine 123 efflux assay, HeL023 cells; format: cell-based; settings: Rh123 efflux, concentrations of Table 11 (MRE3008F20 10 μM)
T1 construct: nearly all (100±1%) the cells expressing high level of functional P-gp; endogenous in cells; host or cells: HeL023 human erythroleukemia cells
Procedure: 5×10^5 cells from each subline were loaded with 50 ng/ml of rhodamine 123 for 30 minutes at 37° C. in medium. The cells were washed and resuspended in dye-staining agent free medium for 3 hours at 37° C. to allow rhodamine 123 efflux. The cells were then washed twice and the fluorescence of intracellular rhodamine 123 were analysed with Flow cytometer (residual fluorescence FRES). The fluorescence was compared with loaded cells maintained at 4° C. to prevent drug export (maximal fluorescence FMAX). […] Cells from each subline that were not being exposed to rhodamine 123 were used as negative controls.
Rhodamine 123 (Rh123) retention, a P-gp functional assay, was studied in all cell lines. This assay was performed by incubating cells with Rh123 and determining Rh123 accumulation by measuring its fluorescence. The maximum load of Rh123 (FMAX) was quantified at the end of treatment harvesting the cells and storing them at 4° C. to prevent any active Rh123 efflux . The P-gp drug efflux was allowed incubating Rh123-loaded cells in fresh new medium Rh123-free for 3 hours at 37° C. After this incubation, residual fluorescence (FRES) was measured and compared to FMAX.

[3] = target: T2, human A3 adenosine receptor (Homo sapiens, UniProt P0DMS8); assay: biochemical
T2 sequence (P0DMS8 1-318): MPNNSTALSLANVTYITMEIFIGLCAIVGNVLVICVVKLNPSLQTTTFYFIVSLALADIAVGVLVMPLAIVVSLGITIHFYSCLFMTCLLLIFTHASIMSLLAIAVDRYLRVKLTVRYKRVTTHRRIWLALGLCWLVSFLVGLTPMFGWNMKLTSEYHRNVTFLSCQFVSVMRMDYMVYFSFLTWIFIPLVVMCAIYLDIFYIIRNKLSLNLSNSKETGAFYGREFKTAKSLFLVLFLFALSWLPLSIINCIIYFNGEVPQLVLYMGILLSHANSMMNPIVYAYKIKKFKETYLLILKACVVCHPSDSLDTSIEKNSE

[4] = system: A375 melanoma cells; assay: Colony formation assay of A375 cells; format: cell-based, human; settings: 7 days
Procedure: FIG. 2 illustrates colony formation assay of A375 cells. Cells were treated with different drugs and colonies were counted after 7 days. The values represent the mean ±SEM of four independent experiments. D=DMSO (control); T=paclitaxel, 0.75 ng/ml; M=MRE 3008F20, 10 μM; C=CI-IB-MECA, 10 μM; TM=paclitaxel plus MRE 3008F20; TC=paclitaxel plus CI-IB-MECA treated cells. *P<0.01 TM versus T. Analysis was by ANOVA followed by Dunnett's test.;
Control plates received the same volume of DMSO alone. After 7 days of growth at 37° C. in humidified atmosphere containing 5% CO2, the cells were fixed with absolute methanol for 5′ and stained with 1/10 Giemsa/phosphate-buffered saline (PBS) staining solution for 10 minutes. Staining solution was removed and colonies of greater than 30 cells were scored as survivors. For each treatment, six individual wells were scored.
Colony formation assay experiments were performed on A375 melanoma cells treated with increasing concentration of paclitaxel (0.25-75 ng/ml). A3 stimulation is achieved with the selective agonist CI-IB-MECA while A3 blockade is obtained with the selective antagonist MRE 3008F20. […] (FIG. 2)

[5] = system: human melanoma A375 cell line; assay: MTT growth inhibitory assay, A375; format: cell-based
[6] = system: human colon carcinoma HT29 cell line; assay: MTT growth inhibitory assay, HT29; format: cell-based; settings: for IC50: HT-29
[7] = system: human pancreatic cancer Panc-1; assay: MTT growth inhibitory assay, Panc-1; format: cell-based
[8] = system: human lung carcinoma SKMES; assay: MTT growth inhibitory assay, SKMES; format: cell-based
[9] = 100 mg/m^2; cited from earlier work
[10] = Homo sapiens, A-375, Human Melanoma A375, read-out: IC50 growth inhibition, agent used separately
[11] = Human Colon Carcinoma HT29, read-out: IC50 growth inhibition, agent used separately
[12] = Human Pancreatic Cancer Panc-1, read-out: IC50 growth inhibition, agent used separately
[13] = Human Lung Carcinoma SKMES, read-out: IC50 growth inhibition, agent used separately

T1 sequence (P08183 whole entry): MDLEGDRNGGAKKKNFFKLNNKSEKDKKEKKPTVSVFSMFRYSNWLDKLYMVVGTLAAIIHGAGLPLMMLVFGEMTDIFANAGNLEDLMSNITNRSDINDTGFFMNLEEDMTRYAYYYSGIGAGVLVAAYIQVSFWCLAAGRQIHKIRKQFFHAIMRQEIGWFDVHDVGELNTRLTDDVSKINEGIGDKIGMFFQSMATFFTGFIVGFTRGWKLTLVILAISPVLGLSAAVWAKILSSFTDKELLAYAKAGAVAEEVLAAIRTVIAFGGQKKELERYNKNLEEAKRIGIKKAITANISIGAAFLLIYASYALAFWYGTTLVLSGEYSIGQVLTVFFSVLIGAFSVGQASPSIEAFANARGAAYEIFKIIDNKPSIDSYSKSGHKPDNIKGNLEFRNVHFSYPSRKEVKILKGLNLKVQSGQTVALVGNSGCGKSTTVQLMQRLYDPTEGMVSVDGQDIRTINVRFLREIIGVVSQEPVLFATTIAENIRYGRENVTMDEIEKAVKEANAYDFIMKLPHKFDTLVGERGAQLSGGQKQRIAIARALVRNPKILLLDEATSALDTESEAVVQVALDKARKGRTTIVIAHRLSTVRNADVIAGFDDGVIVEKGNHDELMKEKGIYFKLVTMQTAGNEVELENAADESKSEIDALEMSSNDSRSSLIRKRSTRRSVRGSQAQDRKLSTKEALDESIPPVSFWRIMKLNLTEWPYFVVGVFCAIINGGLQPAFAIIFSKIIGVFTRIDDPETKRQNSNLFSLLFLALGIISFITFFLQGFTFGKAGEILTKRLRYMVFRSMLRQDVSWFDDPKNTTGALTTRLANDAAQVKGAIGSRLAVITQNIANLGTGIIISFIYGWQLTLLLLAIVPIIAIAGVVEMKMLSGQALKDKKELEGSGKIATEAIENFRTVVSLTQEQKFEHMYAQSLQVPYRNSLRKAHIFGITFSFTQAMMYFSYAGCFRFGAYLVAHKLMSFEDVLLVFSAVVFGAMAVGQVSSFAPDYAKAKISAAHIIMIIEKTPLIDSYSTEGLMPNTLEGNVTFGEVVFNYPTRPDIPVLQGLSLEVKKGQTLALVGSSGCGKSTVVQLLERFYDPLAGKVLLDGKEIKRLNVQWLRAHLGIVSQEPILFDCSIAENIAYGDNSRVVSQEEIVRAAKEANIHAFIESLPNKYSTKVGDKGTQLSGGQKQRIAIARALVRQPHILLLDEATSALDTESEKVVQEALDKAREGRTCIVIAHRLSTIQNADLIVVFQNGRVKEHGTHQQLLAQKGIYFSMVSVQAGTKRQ

Compound: Nc1nc2ccc(Cl)cc2c2nc(-c3ccco3)nn12 [CGS 15943, 5-amino-9-chloro-2-(furyl) 1,2,4-triazolo[1,5-c]quinazoline, reference compound]
EC50 [1]: 12600 ± 1410 nM | inhibition of P-gp activity (in words) [2]: much lower effect on P-gp activity | Ki [3]: 118 ± 12 nM

Compound: CNC(=O)[C@H]1O[C@@H](n2cnc3c(NCc4cccc(I)c4)nc(Cl)nc32)[C@H](O)[C@@H]1O [CI-IB-MECA]
colony formation, % of DMSO control ([4]; 10 μM alone): 130% | colony formation, % of control, combined with paclitaxel ([4]; 10 μM plus paclitaxel 0.75 ng/ml): 85%

IC50 [5, 10]: 49300 ± 40700 ng/mL (≈ 118000 nM) | IC50 [6, 11]: 56500 ± 8300 ng/mL (≈ 135000 nM) | IC50 [7, 12]: 8000 ± 5700 ng/mL (≈ 19200 nM) | IC50 [8, 13]: 36300 ± 31500 ng/mL (≈ 87000 nM)
Compound: CN(C)c1ccc(NC(=O)Nc2nc3nn(C)cc3c3nc(-c4ccco4)nn23)cc1 [IL-11, N-1-(4-dimethylamino-phenyl)-N′-5-[8-methyl-2-(2-furyl)-pyrazolo[4,3-e]1,2,4-triazolo[1,5-c]pyrimidine]-urea]
Enhancement Factor for docetaxel ([5]; A375, A3 antagonist 0.5 μg/ml): 5.3 | Enhancement Factor for paclitaxel ([5]; A375, A3 antagonist 0.5 μg/ml): 3.1 | Enhancement Factor for docetaxel ([5]; A375, A3 antagonist 5 μg/ml): 6.5 | Enhancement Factor for paclitaxel ([5]; A375, A3 antagonist 5 μg/ml, paclitaxel 0.0001-0.05 μg/ml): 9.6 | Enhancement Factor for paclitaxel ([5]; A375, A3 antagonist 5 μg/ml, paclitaxel 0.0002-0.1 μg/ml): 11.5 | inhibition at 5 µg/mL ([5]; Homo sapiens, A-375, A375, 5 μg/ml, read-out: growth inhibition in the presence of A3 antagonist alone): 30 to 45% | Enhancement Factor for docetaxel ([6]; HT29, A3 antagonist 0.5 μg/ml): 6.4 | Enhancement Factor for doxorubicin ([6]; HT29, A3 antagonist 0.5 μg/ml): 1.2 | Enhancement Factor for irinotecan HCl ([6]; HT29, A3 antagonist 0.5 μg/ml): 1.1 | Enhancement Factor for paclitaxel ([6]; HT29, A3 antagonist 0.5 μg/ml): 2.5 | Enhancement Factor for docetaxel ([7]; Panc-1, A3 antagonist 0.5 μg/ml): 1.4 | Enhancement Factor for docetaxel ([8]; SKMES, A3 antagonist 0.5 μg/ml): 1.9 | Enhancement Factor for irinotecan HCL ([8]; SKMES, A3 antagonist 0.5 μg/ml): 1.9 | Enhancement Factor for paclitaxel ([8]; SKMES, A3 antagonist 0.5 μg/ml): 4.2 | Enhancement Factor for vinblastine ([8]; SKMES, A3 antagonist 0.5 μg/ml): 1.6

Compound: Cc1ccc(NC(=O)Nc2nc3nn(C)cc3c3nc(-c4ccco4)nn23)cc1 [MRE 3046F20, 5-N-(4-methylphenyl-carbamoyl)amino-8-methyl-2 (2-furyl)-pyrazolo-[4,3e]-1,2,4-triazolo[1,5-c]pyrimidine]
EC50 [1]: 570 ± 60 nM | inhibition of P-gp activity (in words) [2]: strong inhibitors of P-gp activity | Ki [3]: 3 ± 0.3 nM

Compound: CCCn1cc2c(nc(NC(=O)Nc3ccccc3)n3nc(-c4ccco4)nc23)n1 [MRE 3055F20, 5-N-(4-phenylcarbamoyl)amino-8-propyl-2 (2furyl)-pyrazolo[4,3e]-1,2,4triazolo-[1,5c]pyrimidine]
EC50 [1]: 310 ± 30 nM | inhibition of P-gp activity (in words) [2]: strong inhibitors of P-gp activity | Ki [3]: 1.4 ± 0.2 nM

Compound: Nc1nc(NCCc2ccc(O)cc2)nc2nc(-c3ccco3)nn12 [ZM 241385, 4-(2-[7-amino-2-(2-furyl)-[1,2,4]triazolo[2,3-a][1,3,5]triazin-5-ylamino]ethyl)phenol, reference compound]
EC50 [1]: 25000 ± 2230 nM | inhibition of P-gp activity (in words) [2]: much lower effect on P-gp activity

IC50 [5, 10]: 0.2 ± 0.07 ng/mL (≈ 0.248 nM) | IC50 [6, 11]: 0.24 ± 0.05 ng/mL (≈ 0.297 nM) | IC50 ([6]; Homo sapiens, HT29, docetaxel 0.00001-0.005 μg/ml, alone, read-out: IC50 of docetaxel, A3 antagonist none): 0.018 ng/mL (≈ 0.0223 nM) | IC50 ([7]; Homo sapiens, Panc-1, docetaxel 0.00001-0.005 μg/ml, alone, read-out: IC50 of docetaxel, A3 antagonist none): 0.68 ng/mL (≈ 0.842 nM) | IC50 [7, 12]: 0.37 ± 0.31 ng/mL (≈ 0.458 nM) | IC50 ([8]; Homo sapiens, SKMES, docetaxel 0.00001-0.005 μg/ml, alone, read-out: IC50 of docetaxel, A3 antagonist none): 0.47 ng/mL (≈ 0.582 nM) | IC50 [8, 13]: 0.84 ± 0.37 ng/mL (≈ 1.04 nM)
Compound: CC(=O)O[C@@]12CO[C@@H]1C[C@H](O)[C@@]1(C)C(=O)[C@H](O)C3=C(C)[C@@H](OC(=O)[C@H](O)[C@@H](NC(=O)OC(C)(C)C)c4ccccc4)C[C@@](O)([C@@H](OC(=O)c4ccccc4)[C@H]21)C3(C)C [docetaxel, reference compound]
acute hypersensitivity reaction, % of patients [9]: 13% | severe hypersensitivity reaction, % of patients [9]: 1.2%

IC50 ([5]; Homo sapiens, A-375, A375 cell line, read-out: IC50 value): 6.4 ng/mL (≈ 11.8 nM) | IC50 ([6]; Homo sapiens, HT29, doxorubicin 0.0002-0.1 μg/ml, alone, read-out: IC50 of doxorubicin, A3 antagonist none): 460 ng/mL (≈ 846 nM) | IC50 ([6]; Homo sapiens, HT29 cell line, read-out: IC50 value): 211 ng/mL (≈ 388 nM)
Compound: COc1cccc2c1C(=O)c1c(O)c3c(c(O)c1C2=O)C[C@@](O)(C(=O)CO)C[C@@H]3O[C@H]1C[C@H](N)[C@H](O)[C@H](C)O1 [doxorubicin, reference compound]
fold HT29 more refractory than A375 ([6]; ratio of IC50 HT29 vs A375): approximately 30 fold
